This note sets out measurements from ChEMBL document CHEMBL1201862, “PubChem BioAssay data set” (2004).

Among the test systems are HOP-62; CCRF-CEM; OVCAR-4; OVCAR-8; HL-60; SNB-19; MOLT-4; IGROV-1; NCI-H23; NCI/ADR-RES; NCI-H226; K562; KM12; UO-31; NCI-H522; SF-539; ACHN; RPMI-8226; SK-MEL-5; HCT-116.
Holding throughout (test): NCI-60 cell line screen, 48 h

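Compound exposure: 48 hours, 5 concentrations, 96-well plates. GI50 is the concentration that inhibits growth by half.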 Calls of active or inactive are those of the source. No stated cut-off is given here; in the data, active = GI50 up to about 1.1 µM and inactive = higher.

Turning to `CC(/C=N/N(C)C1=NCCCCN1)=N/N(C)C1=NCCCCN1`, the GI50 in the assay on HOP-62, in the assay with CCRF-CEM, in the assay on OVCAR-4, in the assay with OVCAR-8, in the assay on HL-60 and with SNB-19 was > 100 µM (inactive) in each case. Moreover, the GI50 in the assay on MOLT-4, in the assay on IGROV-1, in the assay on NCI-H23, in the assay with NCI/ADR-RES, in the assay with NCI-H226 and in the assay on K562 was > 100 µM (inactive) each time. In addition, the GI50 in the assay on KM12, in the assay on UO-31, with NCI-H522, in the assay with SF-539, in the assay on ACHN and in the assay on RPMI-8226 was > 100 µM (inactive) in each case. Besides, the GI50 in the assay on SK-MEL-5 and in the assay with HCT-116 was > 100 µM (inactive) each time.
As for `O=c1[nH]c(C23CC4CC(CC(C4)C2)C3)cc2c1c(=O)oc1ccccc12`, the GI50 was 2.7 µM (inactive) in the assay with HOP-62; 12.5 µM (inactive) in the assay with CCRF-CEM; 3.15 µM (inactive) with OVCAR-4; 3.19 µM (inactive) with OVCAR-8; 29.4 µM (inactive) in the assay on HL-60; 4.98 µM (inactive) in the assay on SNB-19. Also, the GI50 is 10.5 µM (inactive) with MOLT-4; 2.32 µM (inactive) with IGROV-1; 9.57 µM (inactive) in the assay on NCI-H23; 3.96 µM (inactive) in the assay with NCI/ADR-RES; 2.19 µM (inactive) in the assay on NCI-H226; 4.07 µM (inactive) in the assay with K562. Also, the GI50 with KM12 is 14.5 µM (inactive); with UO-31 it was 1.61 µM (inactive); in the assay with NCI-H522 it was 2.58 µM (inactive); in the assay on SF-539, 4.53 µM (inactive); with ACHN, 2.92 µM (inactive); in the assay with RPMI-8226, 3.08 µM (inactive). The GI50 in the assay with SK-MEL-5 was 4.6 µM (inactive); with HCT-116 it was 3.06 µM (inactive).
In the case of `O=c1c(F)cn2c(=O)n1CCCCCCCn1c(=O)c(F)cn(c1=O)CCCCCCC2`, the GI50 in the assay with HOP-62 was 46.6 µM (inactive); in the assay with CCRF-CEM, 76 µM (inactive); in the assay on OVCAR-4, 30.1 µM (inactive); in the assay on OVCAR-8, 59.4 µM (inactive); in the assay on HL-60 it was 49.5 µM (inactive); in the assay with SNB-19, > 100 µM (inactive). For the same molecule, the GI50 in the assay on MOLT-4 was > 100 µM (inactive); in the assay on IGROV-1, > 100 µM (inactive); with NCI-H23, > 100 µM (inactive); with NCI/ADR-RES it was 69 µM (inactive); in the assay with NCI-H226, 54.5 µM (inactive); in the assay with K562, > 100 µM (inactive). Besides, the GI50 in the assay with KM12 was 73.1 µM (inactive); in the assay with UO-31 it was > 100 µM (inactive); in the assay on NCI-H522 it was > 100 µM (inactive); in the assay with SF-539, 33.1 µM (inactive); in the assay on ACHN, > 100 µM (inactive); with RPMI-8226, > 100 µM (inactive). For the same molecule, the values for the GI50 in the assay on SK-MEL-5 and with HCT-116 were 39.9 µM (inactive) and 73.5 µM (inactive), respectively.
For `COC(NC(=O)Nc1ccccc1C)(C(F)(F)F)C(F)(F)F`, the GI50 in the assay on HOP-62 was > 100 µM (inactive); with CCRF-CEM, 40.7 µM (inactive); with OVCAR-4, > 100 µM (inactive); with OVCAR-8 it was > 100 µM (inactive); in the assay on HL-60, > 100 µM (inactive); in the assay on SNB-19, 44.4 µM (inactive). In addition, the GI50 is > 100 µM (inactive) in the assay with MOLT-4; > 100 µM (inactive) with IGROV-1; 81.5 µM (inactive) with NCI-H23; > 100 µM (inactive) in the assay with NCI/ADR-RES; > 100 µM (inactive) in the assay on NCI-H226; 77.1 µM (inactive) in the assay with K562. In addition, the GI50 was > 100 µM (inactive) in the assay with KM12; > 100 µM (inactive) in the assay on UO-31; 30.4 µM (inactive) in the assay with NCI-H522; > 100 µM (inactive) in the assay on SF-539; > 100 µM (inactive) in the assay with ACHN; > 100 µM (inactive) in the assay with RPMI-8226. The GI50 in the assay on SK-MEL-5 and with HCT-116 was > 100 µM (inactive) each time.
Regarding `C=C1C(=O)OC2CC(C)C3CC(O)OC(OCC)C3(C)CC12` (stereo not given), the GI50 was 20.9 µM (inactive) in the assay with HOP-62; 6.46 µM (inactive) in the assay with CCRF-CEM; 21.7 µM (inactive) in the assay with OVCAR-4; 15.7 µM (inactive) in the assay on OVCAR-8; 1.14 µM (inactive) with HL-60; 26 µM (inactive) in the assay with SNB-19. In addition, the GI50 in the assay on MOLT-4 is 16.7 µM (inactive); in the assay on IGROV-1, 19.3 µM (inactive); in the assay with NCI-H23 it was 17.1 µM (inactive); with NCI/ADR-RES it was 16.7 µM (inactive); in the assay on NCI-H226, 25.3 µM (inactive); with K562 it was 11.8 µM (inactive). In addition, the GI50 was 20.6 µM (inactive) in the assay on KM12; 22.3 µM (inactive) with UO-31; 7.03 µM (inactive) in the assay on NCI-H522; 18.1 µM (inactive) in the assay with SF-539; 15.4 µM (inactive) with ACHN; 11.4 µM (inactive) in the assay with RPMI-8226. In addition, the values for the GI50 with SK-MEL-5 and with HCT-116 were 15.5 µM (inactive) and 11.9 µM (inactive), respectively.
On to `C[N+](C)([O-])CCCNc1c2ccccc2nc2cccc([N+](=O)[O-])c12`, for which the GI50 was 0.385 µM (active) with HOP-62; 0.249 µM (active) in the assay on CCRF-CEM; 0.288 µM (active) in the assay on OVCAR-4; 0.635 µM (active) in the assay on OVCAR-8; 0.351 µM (active) with HL-60; 0.409 µM (active) in the assay with SNB-19. In addition, the GI50 with MOLT-4 was 0.142 µM (active); in the assay on IGROV-1, 0.259 µM (active); in the assay with NCI-H23, 0.156 µM (active); in the assay on NCI/ADR-RES, 8.2 µM (inactive); in the assay on NCI-H226 it was 0.313 µM (active); with K562, 0.253 µM (active). Also, the GI50 in the assay with KM12 was 0.412 µM (active); in the assay with UO-31, 1.41 µM (inactive); in the assay with NCI-H522, 0.115 µM (active); in the assay on SF-539 it was 1.07 µM (active); in the assay with ACHN, 0.324 µM (active); in the assay on RPMI-8226, 0.313 µM (active). The GI50 in the assay with SK-MEL-5 is 0.161 µM (active); in the assay on HCT-116, 0.228 µM (active).
Consider `COc1ccc(C2C3=C(COC3=O)OC(C)(C)Oc3cc4c(cc32)OCO4)cc1OC` (stereo not given), for which the GI50 was 63.5 µM (inactive) with HOP-62; 37.1 µM (inactive) in the assay on CCRF-CEM; > 53.8 µM (inactive) with OVCAR-4; 46.1 µM (inactive) in the assay on OVCAR-8; 29.2 µM (inactive) in the assay on HL-60; 44.4 µM (inactive) in the assay with SNB-19. The GI50 is 34.8 µM (inactive) in the assay with MOLT-4; 36.9 µM (inactive) in the assay with IGROV-1; 36.8 µM (inactive) in the assay on NCI-H23; 19.9 µM (inactive) in the assay with NCI/ADR-RES; > 78.7 µM (inactive) in the assay on NCI-H226; 30.8 µM (inactive) with K562. Also, the GI50 is 24 µM (inactive) with KM12; 47.9 µM (inactive) in the assay with UO-31; 32.4 µM (inactive) in the assay on NCI-H522; 29.1 µM (inactive) in the assay on SF-539; 51.5 µM (inactive) with ACHN; 41.6 µM (inactive) in the assay on RPMI-8226. Moreover, the GI50 in the assay with SK-MEL-5 is 30.3 µM (inactive); with HCT-116, 34.6 µM (inactive).
Take `CCOc1cc(C2CC(c3ccc(NS(=O)(=O)c4cc([N+](=O)[O-])ccc4C)cc3)=NN2C(=O)c2ccccc2)ccc1O` (stereo not given): the GI50 is 17.1 µM (inactive) in the assay on HOP-62; 20.7 µM (inactive) in the assay on CCRF-CEM; 24.6 µM (inactive) in the assay on OVCAR-4; 15.2 µM (inactive) with OVCAR-8; 17.2 µM (inactive) in the assay with HL-60; 29.6 µM (inactive) in the assay with SNB-19. In addition, the GI50 is 19.4 µM (inactive) in the assay on MOLT-4; 10.6 µM (inactive) in the assay on IGROV-1; 21.5 µM (inactive) with NCI-H23; 23.3 µM (inactive) in the assay with NCI/ADR-RES; 19.2 µM (inactive) in the assay on NCI-H226; 18.2 µM (inactive) in the assay with K562. The GI50 with KM12 is 30.3 µM (inactive); with UO-31, 15.2 µM (inactive); in the assay on NCI-H522 it was 14.8 µM (inactive); in the assay on SF-539 it was 20.9 µM (inactive); with ACHN, 18.5 µM (inactive); with RPMI-8226, 31.5 µM (inactive). Moreover, the GI50 in the assay with SK-MEL-5 was 15.8 µM (inactive); in the assay on HCT-116 it was 15.3 µM (inactive).
Regarding `COc1ccc(/C=C\c2cc(OC)c(OC)c(OC)c2)cc1OC(=O)CCC(=O)O`, the GI50 was < 0.0001 µM (active) in the assay on HOP-62; < 0.0001 µM (active) in the assay on CCRF-CEM; 36 µM (inactive) with OVCAR-4; < 0.01 µM (active) in the assay with OVCAR-8; < 0.0001 µM (active) in the assay on HL-60; < 0.0001 µM (active) in the assay with SNB-19. Further, the GI50 with MOLT-4 was < 0.0001 µM (active); with IGROV-1 it was 0.000145 µM (active); in the assay with NCI-H23 it was 0.0119 µM (active); with NCI/ADR-RES it was < 0.0001 µM (active); in the assay with NCI-H226, < 0.0001 µM (active); with K562, < 0.0001 µM (active). The GI50 with KM12 is 0.00043 µM (active); in the assay with UO-31, 1.34 µM (inactive); in the assay with NCI-H522 it was < 0.0001 µM (active); with SF-539, < 0.01 µM (active); with ACHN, < 0.0001 µM (active); in the assay on RPMI-8226, < 0.0001 µM (active). Besides, the GI50 was 0.1 µM (active) in the assay on SK-MEL-5 and < 0.0001 µM (active) in the assay on HCT-116.
